Measured values reported in ChEMBL document CHEMBL4251562, “Discovery of new potent molecular entities able to inhibit mPGES-1” (Eur J Med Chem, 2018).
The source made the active and inactive calls. The rule behind the calls is not given here.

Legend:
[1] = target: T1, Prostaglandin E synthase (Homo sapiens) (UniProt O14684); test: Inhibition of mPGES1 in IL-1beta-stimulated human A549 cell microsomes assessed as remaining activity at 10 uM using PGH2 as substrate by measuring reduction in PGE2 production preincubated for 15 mins followed by substrate addition and measured after 1 min by RP-HPLC analysis
T1 sequence (whole entry): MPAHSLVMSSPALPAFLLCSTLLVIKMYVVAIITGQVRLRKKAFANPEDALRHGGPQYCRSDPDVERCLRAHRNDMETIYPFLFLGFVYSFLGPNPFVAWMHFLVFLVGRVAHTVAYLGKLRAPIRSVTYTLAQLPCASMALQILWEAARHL

Prostaglandin E synthase = target: T2, Prostaglandin E synthase (Homo sapiens, UniProt O14684); test: Inhibition of mPGES1 in IL-1beta-stimulated human A549 cell microsomes using PGH2 as substrate assessed as reduction in PGE2 production preincubated for 15 mins followed by substrate addition and measured after 1 min by RP-HPLC analysis
T2 sequence (O14684 whole entry): T1 sequence (whole entry)

[2] = target: T3, Prostaglandin G/H synthase 1 (Ovis aries) (UniProt P05979); test: Inhibition of ovine COX1 at 10 uM using arachidonic acid as substrate preincubated for 5 mins followed by substrate addition and measured after 5 mins by UPLC-MS/MS analysis
T3 sequence (whole entry): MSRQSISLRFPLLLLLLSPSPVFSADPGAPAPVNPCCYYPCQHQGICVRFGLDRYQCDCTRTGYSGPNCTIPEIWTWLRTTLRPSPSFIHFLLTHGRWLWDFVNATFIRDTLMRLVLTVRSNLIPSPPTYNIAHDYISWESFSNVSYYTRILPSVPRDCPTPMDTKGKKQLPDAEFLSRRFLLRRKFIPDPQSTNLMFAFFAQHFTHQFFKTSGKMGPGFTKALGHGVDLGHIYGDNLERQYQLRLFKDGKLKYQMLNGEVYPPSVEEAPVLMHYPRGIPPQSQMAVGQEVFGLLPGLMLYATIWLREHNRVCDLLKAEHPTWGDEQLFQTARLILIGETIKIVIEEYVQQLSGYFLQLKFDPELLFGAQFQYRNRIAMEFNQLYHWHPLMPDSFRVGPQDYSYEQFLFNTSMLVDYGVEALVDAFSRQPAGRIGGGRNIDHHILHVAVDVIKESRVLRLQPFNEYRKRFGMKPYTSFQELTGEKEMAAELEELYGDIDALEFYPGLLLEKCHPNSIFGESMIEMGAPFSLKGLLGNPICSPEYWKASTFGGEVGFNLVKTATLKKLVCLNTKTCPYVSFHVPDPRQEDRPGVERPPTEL

[3] = target: T4, Prostaglandin G/H synthase 2 (Homo sapiens) (UniProt P35354); test: Inhibition of recombinant human COX2 at 10 uM using arachidonic acid as substrate preincubated for 5 mins followed by substrate addition and measured after 5 mins by UPLC-MS/MS analysis
T4 sequence (whole entry): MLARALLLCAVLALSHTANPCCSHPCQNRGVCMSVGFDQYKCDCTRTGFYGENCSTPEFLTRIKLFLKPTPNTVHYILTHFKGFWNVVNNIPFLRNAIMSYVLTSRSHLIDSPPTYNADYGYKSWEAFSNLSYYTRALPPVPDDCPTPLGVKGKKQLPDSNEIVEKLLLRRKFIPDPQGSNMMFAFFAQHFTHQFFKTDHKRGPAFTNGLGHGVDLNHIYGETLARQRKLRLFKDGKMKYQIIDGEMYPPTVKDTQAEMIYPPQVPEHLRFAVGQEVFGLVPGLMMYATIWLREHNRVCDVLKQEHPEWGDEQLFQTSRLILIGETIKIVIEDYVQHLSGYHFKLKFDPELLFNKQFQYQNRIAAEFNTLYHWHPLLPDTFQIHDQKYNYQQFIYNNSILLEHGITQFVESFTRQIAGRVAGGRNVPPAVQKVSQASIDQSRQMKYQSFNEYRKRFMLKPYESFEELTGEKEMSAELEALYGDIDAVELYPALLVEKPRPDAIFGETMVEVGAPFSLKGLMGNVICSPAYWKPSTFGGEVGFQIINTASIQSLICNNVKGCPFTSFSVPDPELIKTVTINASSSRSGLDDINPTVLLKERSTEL

[4] = target: T5, Prostaglandin G/H synthase 1 (Ovis aries, UniProt P05979); test: Inhibition of ovine COX1 using arachidonic acid as substrate preincubated for 5 mins followed by substrate addition and measured after 5 mins by UPLC-MS/MS analysis
T5 sequence (P05979 whole entry): T3 sequence (whole entry)

**Q.** How did the Activity [1] turn out when `COCCc1ccc(OCc2ccc(-c3cc(F)c([N+](=O)[O-])cc3[N+](=O)[O-])cc2)cc1` was run?
**A.** Its Activity is 11.8%.

**Q.** And the IC50 (Prostaglandin E synthase)?
**A.** The IC50 was 1640 nM.

**Q.** And the inhibition [2]?
**A.** The inhibition was “inactive”.

**Q.** And the inhibition [3]?
**A.** Its inhibition is “inactive”.

**Q.** Which Activity [1] does the source give for `O=[N+]([O-])c1cc(C(F)(F)F)ccc1-c1ccccc1COc1cccc(C(F)(F)F)c1` here?
**A.** The Activity was “inactive”.

**Q.** What about the IC50 (Prostaglandin E synthase) of the same compound?
**A.** The IC50 was over 10000 nM.

**Q.** With `O=[N+]([O-])c1cc([N+](=O)[O-])c(-c2ccc(COc3cccc(C(F)(F)F)c3)cc2)cc1F` as the compound, how does the Activity [1] read?
**A.** Its Activity is 12.1%.

**Q.** What about the IC50 (Prostaglandin E synthase) of the same compound?
**A.** Its IC50 is 260 nM.

**Q.** And the inhibition [2]?
**A.** Its inhibition is “inactive”.

**Q.** And the inhibition [3]?
**A.** The inhibition was “inactive”.

**Q.** What does the source list for `COCCc1ccc(OCc2ccc(-c3ccc(C(F)(F)F)cc3[N+](=O)[O-])cc2)cc1`?
**A.** Activity [1]: inactive; IC50 (Prostaglandin E synthase): > 10000 nM

**Q.** With `O=[N+]([O-])c1cc([N+](=O)[O-])c(-c2ccc(COc3cccc4ccccc34)cc2)cc1F` as the compound, how does the Activity [1] read?
**A.** The Activity was 9.1%.

**Q.** What about the IC50 (Prostaglandin E synthase) of the same compound?
**A.** The IC50 was 180 nM.

**Q.** What about the inhibition [2] of the same compound?
**A.** The inhibition was “inactive”.

**Q.** And the inhibition [3]?
**A.** The inhibition was “inactive”.

**Q.** How did the Activity [1] turn out when `O=[N+]([O-])c1cc(C(F)(F)F)ccc1-c1ccc(COc2cccc3ccccc23)cc1` was run?
**A.** Its Activity is “inactive”.

**Q.** What about the IC50 (Prostaglandin E synthase) of the same compound?
**A.** Its IC50 is over 10000 nM.

**Q.** What does the source list for `O=[N+]([O-])c1cc(C(F)(F)F)ccc1-c1ccc(COc2cccc(C(F)(F)F)c2)cc1`?
**A.** Activity [1]: inactive; IC50 (Prostaglandin E synthase): > 10000 nM

**Q.** Which results are given for `O=[N+]([O-])c1cc(C(F)(F)F)ccc1-c1ccc(COc2ccccc2)cc1`?
**A.** Activity [1]: inactive; IC50 (Prostaglandin E synthase): > 10000 nM

**Q.** What does the source list for `O=[N+]([O-])c1cc([N+](=O)[O-])c(-c2ccccc2COc2cccc(C(F)(F)F)c2)cc1F`?
**A.** Activity [1]: 7%; IC50 (Prostaglandin E synthase): 540 nM; inhibition [2]: Active; IC50 [4]: 3000 nM; inhibition [3]: inactive

**Q.** How did the Activity [1] turn out when `O=[N+]([O-])c1cc([N+](=O)[O-])c(-c2ccc(COc3ccccc3)cc2)cc1F` was run?
**A.** The Activity was 9.5%.

**Q.** What about the IC50 (Prostaglandin E synthase) of the same compound?
**A.** Its IC50 is 600 nM.

**Q.** And the inhibition [2]?
**A.** The inhibition was “inactive”.

**Q.** What about the inhibition [3] of the same compound?
**A.** The inhibition was “inactive”.
